The source of these data is ChEMBL document CHEMBL3132769, “Fragment growing to retain or alter the selectivity of anchored kinase hinge-binding fragments” (Medchemcomm, 2014).

Test [1] deals with RAF proto-oncogene serine/threonine-protein kinase (Homo sapiens) (UniProt P04049). Briefly: Inhibition of human truncated c-Raf expressed in baculovirus assessed as substrate phosphorylation using fluorescence-labelled peptides as substrate at 0.2 uM after 90 mins by microfluidic peptide phosphorylation assay.
Sequence of RAF proto-oncogene serine/threonine-protein kinase (Homo sapiens) (P04049 whole entry, the tested form may be a part): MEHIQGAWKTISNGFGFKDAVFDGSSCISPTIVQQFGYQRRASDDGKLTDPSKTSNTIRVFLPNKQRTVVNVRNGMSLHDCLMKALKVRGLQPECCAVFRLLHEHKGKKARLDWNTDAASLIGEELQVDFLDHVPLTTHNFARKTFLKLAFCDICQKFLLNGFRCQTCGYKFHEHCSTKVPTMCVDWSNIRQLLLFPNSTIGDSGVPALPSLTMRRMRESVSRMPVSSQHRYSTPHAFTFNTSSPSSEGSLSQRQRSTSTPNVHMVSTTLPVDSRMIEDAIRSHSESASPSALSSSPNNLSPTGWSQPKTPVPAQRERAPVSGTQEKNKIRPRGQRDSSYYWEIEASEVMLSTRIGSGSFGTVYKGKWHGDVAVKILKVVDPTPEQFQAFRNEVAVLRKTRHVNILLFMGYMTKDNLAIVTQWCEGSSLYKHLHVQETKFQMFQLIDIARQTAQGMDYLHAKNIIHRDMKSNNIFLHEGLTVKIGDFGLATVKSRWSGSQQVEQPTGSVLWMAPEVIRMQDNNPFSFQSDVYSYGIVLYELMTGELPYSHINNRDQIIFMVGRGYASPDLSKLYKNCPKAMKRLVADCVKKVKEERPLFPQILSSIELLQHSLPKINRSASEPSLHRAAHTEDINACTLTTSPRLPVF
Test [2] deals with Ribosomal protein S6 kinase alpha-3 (Homo sapiens) (UniProt P51812). The test can be described thus: Inhibition of human full length RSK2 expressed in baculovirus assessed as substrate phosphorylation using fluorescence-labelled peptides as substrate at 9 uM after 90 mins by microfluidic peptide phosphorylation assay.
In test [3] the target is Casein kinase I isoform delta (Homo sapiens) (UniProt P48730). Briefly: Inhibition of human CK1D catalytic domain expressed in Escherichia coli cell assessed as substrate phosphorylation using fluorescence-labelled peptides as substrate at 95 uM after 90 mins by microfluidic peptide phosphorylation assay.
Sequence of Casein kinase I isoform delta (Homo sapiens) (P48730 whole entry, looked up, the tested form may be a part, canonical isoform): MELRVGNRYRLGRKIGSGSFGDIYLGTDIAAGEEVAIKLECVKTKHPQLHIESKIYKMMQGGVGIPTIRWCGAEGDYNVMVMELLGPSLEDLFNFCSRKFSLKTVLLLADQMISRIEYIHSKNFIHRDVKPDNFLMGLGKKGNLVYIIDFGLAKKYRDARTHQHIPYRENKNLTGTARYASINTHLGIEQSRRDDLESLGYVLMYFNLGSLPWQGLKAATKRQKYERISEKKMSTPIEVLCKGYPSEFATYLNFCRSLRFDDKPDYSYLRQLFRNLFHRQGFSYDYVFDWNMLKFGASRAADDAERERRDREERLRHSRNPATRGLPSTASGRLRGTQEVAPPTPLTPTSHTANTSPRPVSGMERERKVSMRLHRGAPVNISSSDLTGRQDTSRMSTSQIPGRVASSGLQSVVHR
The target of test [4] is T1, Cytoplasmic tyrosine-protein kinase BMX (Homo sapiens) (UniProt P51813).
T1 sequence (whole entry): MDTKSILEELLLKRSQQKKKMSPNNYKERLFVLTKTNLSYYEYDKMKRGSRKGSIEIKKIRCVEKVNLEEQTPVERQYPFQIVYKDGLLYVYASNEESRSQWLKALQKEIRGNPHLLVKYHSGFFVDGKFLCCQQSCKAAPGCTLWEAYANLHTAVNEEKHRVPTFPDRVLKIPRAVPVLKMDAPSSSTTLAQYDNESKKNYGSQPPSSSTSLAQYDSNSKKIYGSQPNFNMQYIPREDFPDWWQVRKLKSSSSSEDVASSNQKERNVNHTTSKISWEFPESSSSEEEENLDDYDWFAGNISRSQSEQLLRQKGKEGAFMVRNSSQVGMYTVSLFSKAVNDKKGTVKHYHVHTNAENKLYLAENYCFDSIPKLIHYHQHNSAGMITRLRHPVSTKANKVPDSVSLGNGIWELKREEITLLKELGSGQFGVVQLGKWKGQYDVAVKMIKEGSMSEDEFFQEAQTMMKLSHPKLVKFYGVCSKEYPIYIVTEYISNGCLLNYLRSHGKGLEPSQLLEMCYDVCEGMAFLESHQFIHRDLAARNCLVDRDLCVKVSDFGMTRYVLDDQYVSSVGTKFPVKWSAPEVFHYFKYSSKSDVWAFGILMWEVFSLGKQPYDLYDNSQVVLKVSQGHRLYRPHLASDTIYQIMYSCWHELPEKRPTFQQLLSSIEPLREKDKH
The test can be described thus: Inhibition of human full length BMX expressed in baculovirus assessed as substrate phosphorylation using fluorescence-labelled peptides as substrate at 95 uM after 90 mins by microfluidic peptide phosphorylation assay.

Test [5] has as its target T2, Aurora kinase A (Homo sapiens) (UniProt O14965).
T2 sequence (whole entry): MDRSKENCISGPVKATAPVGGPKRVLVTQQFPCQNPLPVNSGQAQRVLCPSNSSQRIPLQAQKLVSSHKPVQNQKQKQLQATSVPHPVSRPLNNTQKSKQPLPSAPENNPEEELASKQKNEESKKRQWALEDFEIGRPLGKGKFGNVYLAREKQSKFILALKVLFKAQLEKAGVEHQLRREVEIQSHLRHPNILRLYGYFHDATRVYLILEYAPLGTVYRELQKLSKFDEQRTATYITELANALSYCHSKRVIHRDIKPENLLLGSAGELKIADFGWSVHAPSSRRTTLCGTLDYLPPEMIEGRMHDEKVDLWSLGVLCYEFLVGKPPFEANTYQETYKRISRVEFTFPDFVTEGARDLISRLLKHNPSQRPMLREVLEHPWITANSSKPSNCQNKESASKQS
Briefly: Inhibition of human full length AurA expressed in baculovirus assessed as substrate phosphorylation using fluorescence-labelled peptides as substrate at 8 uM after 90 mins by microfluidic peptide phosphorylation assay.

Test [6] addresses Protein kinase C beta type (Homo sapiens) (UniProt P05771). Briefly: Inhibition of human truncated PKC beta1 expressed in baculovirus assessed as substrate phosphorylation using fluorescence-labelled peptides as substrate at 70 uM after 90 mins by microfluidic peptide phosphorylation assay.
In test [7] the target is Epidermal growth factor receptor (Homo sapiens) (UniProt P00533). The test can be described thus: Inhibition of human EGFR catalytic domain expressed in baculovirus assessed as substrate phosphorylation using fluorescence-labelled peptides as substrate at 70 uM after 90 mins by microfluidic peptide phosphorylation assay.
Sequence of Epidermal growth factor receptor (Homo sapiens) (P00533 whole entry, the tested form may be a part): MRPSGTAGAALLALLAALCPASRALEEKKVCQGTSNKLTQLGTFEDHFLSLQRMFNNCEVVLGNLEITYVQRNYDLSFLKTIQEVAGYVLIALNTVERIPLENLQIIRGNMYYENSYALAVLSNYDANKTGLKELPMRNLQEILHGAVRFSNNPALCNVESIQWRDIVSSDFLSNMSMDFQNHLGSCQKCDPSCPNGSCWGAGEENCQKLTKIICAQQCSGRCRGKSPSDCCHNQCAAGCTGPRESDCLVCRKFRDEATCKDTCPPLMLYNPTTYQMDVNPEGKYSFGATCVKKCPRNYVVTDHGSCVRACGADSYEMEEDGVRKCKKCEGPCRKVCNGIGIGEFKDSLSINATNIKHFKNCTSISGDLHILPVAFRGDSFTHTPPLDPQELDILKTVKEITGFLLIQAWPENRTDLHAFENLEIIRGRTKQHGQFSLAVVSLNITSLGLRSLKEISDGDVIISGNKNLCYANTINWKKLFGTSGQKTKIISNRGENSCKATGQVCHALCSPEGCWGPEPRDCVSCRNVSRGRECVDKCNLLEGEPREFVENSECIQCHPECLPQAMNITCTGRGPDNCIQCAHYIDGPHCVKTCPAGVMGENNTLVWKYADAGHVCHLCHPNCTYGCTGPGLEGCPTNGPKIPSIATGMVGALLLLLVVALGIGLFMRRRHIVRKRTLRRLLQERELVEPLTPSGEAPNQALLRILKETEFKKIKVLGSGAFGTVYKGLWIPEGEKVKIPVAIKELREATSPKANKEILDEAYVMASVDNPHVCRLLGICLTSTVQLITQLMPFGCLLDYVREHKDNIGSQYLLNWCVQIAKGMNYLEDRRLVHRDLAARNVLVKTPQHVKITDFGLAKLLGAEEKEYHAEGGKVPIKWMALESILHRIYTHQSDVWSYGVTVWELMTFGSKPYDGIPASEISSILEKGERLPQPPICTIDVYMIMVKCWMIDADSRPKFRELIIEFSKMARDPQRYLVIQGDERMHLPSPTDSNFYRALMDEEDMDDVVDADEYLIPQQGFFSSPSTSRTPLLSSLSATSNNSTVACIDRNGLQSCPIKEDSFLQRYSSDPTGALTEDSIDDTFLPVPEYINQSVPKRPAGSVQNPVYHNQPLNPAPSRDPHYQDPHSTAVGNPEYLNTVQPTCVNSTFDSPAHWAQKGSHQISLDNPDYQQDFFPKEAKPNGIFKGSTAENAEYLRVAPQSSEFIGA
Test [8] concerns the target Serine/threonine-protein kinase pim-1 (Homo sapiens) (UniProt P11309). Briefly: Inhibition of human full length PIM1 expressed in baculovirus assessed as substrate phosphorylation using fluorescence-labelled peptides as substrate at […] after 90 mins by microfluidic peptide phosphorylation assay.
Test [9] deals with T3, Serine/threonine-protein kinase Sgk1 (Homo sapiens) (UniProt O00141).
T3 sequence (whole entry): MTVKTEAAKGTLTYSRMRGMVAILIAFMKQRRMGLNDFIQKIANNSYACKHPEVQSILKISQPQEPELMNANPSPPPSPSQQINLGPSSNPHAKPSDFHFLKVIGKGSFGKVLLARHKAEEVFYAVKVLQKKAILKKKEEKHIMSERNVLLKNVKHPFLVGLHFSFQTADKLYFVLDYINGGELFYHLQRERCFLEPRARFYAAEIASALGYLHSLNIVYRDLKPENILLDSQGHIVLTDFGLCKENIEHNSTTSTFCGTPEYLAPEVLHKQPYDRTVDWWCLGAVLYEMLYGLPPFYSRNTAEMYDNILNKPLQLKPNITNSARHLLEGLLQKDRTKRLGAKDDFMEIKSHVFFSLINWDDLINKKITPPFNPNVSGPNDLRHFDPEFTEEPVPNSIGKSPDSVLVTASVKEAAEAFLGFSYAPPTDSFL
Briefly: Inhibition of human truncated SGK1 expressed in baculovirus assessed as substrate phosphorylation using fluorescence-labelled peptides as substrate at 420 uM after 90 mins by microfluidic peptide phosphorylation assay.

The test system of test [10] is Tyrosine-protein kinase ABL1 (Homo sapiens), P00519 [Q252H]. The test can be described thus: Inhibition of human truncated ABL Q252H mutant expressed in baculovirus assessed as substrate phosphorylation using fluorescence-labelled peptides as substrate at 420 uM after 90 mins by microfluidic peptide phosphorylation assay.
The target of test [11] is Serine/threonine-protein kinase MARK1 (Homo sapiens) (UniProt Q9P0L2). The test can be described thus: Inhibition of human full length MARK1 expressed in baculovirus assessed as substrate phosphorylation using fluorescence-labelled peptides as substrate at 420 uM after 90 mins by microfluidic peptide phosphorylation assay.
Test [12] concerns the target Serine/threonine-protein kinase PAK 2 (Homo sapiens) (UniProt Q13177). The test can be described thus: Inhibition of human truncated PAK2 expressed in Escherichia coli cell assessed as substrate phosphorylation using fluorescence-labelled peptides as substrate at 1000 uM after 90 mins by microfluidic peptide phosphorylation assay.
For test [13], the target named is Proto-oncogene tyrosine-protein kinase Src (Homo sapiens) (UniProt P12931). The test can be described thus: Inhibition of human full length SRC expressed in baculovirus assessed as substrate phosphorylation using fluorescence-labelled peptides as substrate at 1000 uM after 90 mins by microfluidic peptide phosphorylation assay.
Sequence of Proto-oncogene tyrosine-protein kinase Src (Homo sapiens) (P12931 2-536 limits assumed): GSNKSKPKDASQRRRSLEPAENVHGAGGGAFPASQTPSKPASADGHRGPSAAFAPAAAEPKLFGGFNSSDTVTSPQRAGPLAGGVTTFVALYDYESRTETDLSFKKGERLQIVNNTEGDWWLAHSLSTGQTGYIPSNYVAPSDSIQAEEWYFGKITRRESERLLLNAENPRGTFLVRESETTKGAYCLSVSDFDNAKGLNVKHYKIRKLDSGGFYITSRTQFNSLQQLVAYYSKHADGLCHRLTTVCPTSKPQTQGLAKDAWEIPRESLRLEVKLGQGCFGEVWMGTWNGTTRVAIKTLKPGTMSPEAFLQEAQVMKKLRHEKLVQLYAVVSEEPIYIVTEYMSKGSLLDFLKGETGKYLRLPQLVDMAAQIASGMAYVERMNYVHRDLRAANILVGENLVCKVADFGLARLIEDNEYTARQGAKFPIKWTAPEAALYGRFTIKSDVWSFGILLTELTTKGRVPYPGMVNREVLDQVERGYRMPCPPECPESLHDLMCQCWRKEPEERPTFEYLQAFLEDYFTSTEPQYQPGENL
For test [14], the system named is Tyrosine-protein kinase ABL1 (Homo sapiens), P00519 [Q252H]. Briefly: Inhibition of human truncated ABL Q252H mutant expressed in baculovirus assessed as substrate phosphorylation using fluorescence-labelled peptides as substrate at 1000 uM after 90 mins by microfluidic peptide phosphorylation assay.

A word on the inhibition: it is the change of the read-out against control, counted positive when it falls.

Sequence of Serine/threonine-protein kinase PAK 2 (Homo sapiens) (Q13177 whole entry, the tested form may be a part): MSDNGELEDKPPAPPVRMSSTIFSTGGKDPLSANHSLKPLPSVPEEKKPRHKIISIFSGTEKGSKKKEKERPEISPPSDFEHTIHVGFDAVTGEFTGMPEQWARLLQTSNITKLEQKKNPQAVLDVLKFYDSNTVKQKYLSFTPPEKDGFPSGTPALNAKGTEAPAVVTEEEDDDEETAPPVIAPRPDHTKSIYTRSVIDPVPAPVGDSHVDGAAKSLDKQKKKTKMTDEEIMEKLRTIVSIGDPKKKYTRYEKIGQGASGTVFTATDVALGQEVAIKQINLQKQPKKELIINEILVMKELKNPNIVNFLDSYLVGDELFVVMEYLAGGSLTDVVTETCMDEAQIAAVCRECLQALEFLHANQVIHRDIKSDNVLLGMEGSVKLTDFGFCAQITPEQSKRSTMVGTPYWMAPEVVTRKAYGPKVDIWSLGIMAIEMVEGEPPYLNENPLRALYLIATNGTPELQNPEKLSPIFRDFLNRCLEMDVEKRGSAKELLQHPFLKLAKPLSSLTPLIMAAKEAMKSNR
Sequence of Protein kinase C beta type (Homo sapiens) (P05771 2-671 limits assumed): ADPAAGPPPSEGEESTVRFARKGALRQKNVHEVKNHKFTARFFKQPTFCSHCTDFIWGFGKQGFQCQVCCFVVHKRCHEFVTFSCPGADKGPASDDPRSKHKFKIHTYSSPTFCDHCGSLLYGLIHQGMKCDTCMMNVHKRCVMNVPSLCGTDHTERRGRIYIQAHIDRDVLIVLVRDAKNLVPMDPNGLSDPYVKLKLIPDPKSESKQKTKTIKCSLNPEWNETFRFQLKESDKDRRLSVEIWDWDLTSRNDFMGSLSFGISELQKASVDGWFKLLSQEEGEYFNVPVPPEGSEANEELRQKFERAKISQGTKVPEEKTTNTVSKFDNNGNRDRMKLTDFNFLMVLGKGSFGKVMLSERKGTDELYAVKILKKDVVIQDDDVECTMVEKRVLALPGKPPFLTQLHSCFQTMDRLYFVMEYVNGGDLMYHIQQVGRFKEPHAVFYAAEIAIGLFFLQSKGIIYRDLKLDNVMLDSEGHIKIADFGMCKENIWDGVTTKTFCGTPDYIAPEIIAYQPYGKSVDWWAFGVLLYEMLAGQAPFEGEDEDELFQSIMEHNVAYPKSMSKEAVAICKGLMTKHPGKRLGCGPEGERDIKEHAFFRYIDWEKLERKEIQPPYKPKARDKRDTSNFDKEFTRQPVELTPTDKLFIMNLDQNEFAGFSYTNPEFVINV
Sequence of Serine/threonine-protein kinase pim-1 (Homo sapiens) (P11309 whole entry, looked up): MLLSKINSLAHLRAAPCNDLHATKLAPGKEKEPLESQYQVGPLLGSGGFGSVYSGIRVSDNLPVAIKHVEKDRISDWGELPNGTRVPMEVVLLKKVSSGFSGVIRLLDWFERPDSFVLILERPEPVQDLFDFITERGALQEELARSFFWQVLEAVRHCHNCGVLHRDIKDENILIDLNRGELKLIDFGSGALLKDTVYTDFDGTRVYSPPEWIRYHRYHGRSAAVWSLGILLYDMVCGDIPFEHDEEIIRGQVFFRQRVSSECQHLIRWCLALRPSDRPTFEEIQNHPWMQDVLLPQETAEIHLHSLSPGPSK

With `Clc1ccc(C2(c3ccc(-c4ncnc5[nH]cnc45)cc3)CCNCC2)cc1`, the inhibition in test [1] is 3.5%.

`NCC1CN(c2ncnc3[nH]c4cnccc4c23)CCO1` (centres undefined): in [2], the inhibition stood at 95.5%.

Consider `NCCc1ccc(-c2ncnc3[nH]cnc23)cc1`, for which the inhibition in test [3] was 77.5%; in test [4] it was 0%.

As to `NCC1CCN(c2ncnc3[nH]ccc23)CC1`, in test [5], the inhibition turned out to be 87.5%.

Regarding `CNCc1ccc(-c2ncnc3[nH]cnc23)cc1`, the inhibition amounted to 73.5% in [6] and 16.5% in test [7].

With `COC(=O)c1cnc(Nc2cnc(C#N)cn2)cc1NCC1CCNCC1`, the inhibition in [8] was found to be 7%.

On to `c1nc(N2CCOCC2)c2nc[nH]c2n1`, for which the inhibition in [9] worked out at 83.5%; in [10] it was 64%; in [11], 4.5%.

On to `c1cnc2[nH]ccc2c1`, for which the inhibition in test [12] came out at 13.5%; in test [13] it was 28.5%; in [14], 29%.
